Results published in patent US7202241B2, “Benzoxazine derivatives and uses thereof” (Roche Palo Alto LLC, priority 2003, dated 2007).

Each compound was assayed against T1, recombinant human 5-HT6 receptor (Homo sapiens, UniProt P50406) (assay: in vitro radioligand binding, [3H]LSD competition in membranes of HEK293 cells expressing 5-HT6). Conditions: [3H]LSD (5 nM) displacement, HEK293 cell membranes, 60 min at 37° C., pH 7.4.
T1 construct: expressed in transfected cells; membranes
Method: This example illustrates in vitro radioligand binding studies of compound of formula (I).
The binding activity of compounds of this invention in vitro was determined as follows. Duplicate determinations of ligand affinity are made by competing for binding of [^3H]LSD in cell membranes derived from HEK293 cells stably expressing recombinant human 5-HT6 receptor. This cell line was prepared by the method described by Monsma et al., Molecular Pharmacology, Vol. 43 pp. 320–327 (1993).
All determinations were made in assay buffer containing 50 mM Tris-HCl, 10 mM MgSO4, 0.5 mM EDTA, 1 mM ascorbic acid, pH 7.4 at 37° C., in a 250 microliter reaction volume. Assay tubes containing [^3H] LSD (5 nM), competing ligand, and membrane were incubated in a shaking water bath for 60 min. at 37° C., filtered onto Packard GF-B plates (pre-soaked with 0.3% PEI) using a Packard 96 well cell harvester and washed 3 times in ice cold 50 mM Tris-HCl. Bound [^3H] LSD was determined as radioactive counts per minute using Packard TopCount.
Displacement of [3H]LSD from the binding sites was quantified by fitting concentration-binding data to a 4-parameter logistic equation:
[formula] where Hill is the Hill slope, [ligand] is the concentration of competing radioligand and IC50 is the concentration of radioligand producing half-maximal specific binding of radioligand. The specific binding window is the difference between the Bmax and the basal parameters.

T1 sequence (P50406 whole entry): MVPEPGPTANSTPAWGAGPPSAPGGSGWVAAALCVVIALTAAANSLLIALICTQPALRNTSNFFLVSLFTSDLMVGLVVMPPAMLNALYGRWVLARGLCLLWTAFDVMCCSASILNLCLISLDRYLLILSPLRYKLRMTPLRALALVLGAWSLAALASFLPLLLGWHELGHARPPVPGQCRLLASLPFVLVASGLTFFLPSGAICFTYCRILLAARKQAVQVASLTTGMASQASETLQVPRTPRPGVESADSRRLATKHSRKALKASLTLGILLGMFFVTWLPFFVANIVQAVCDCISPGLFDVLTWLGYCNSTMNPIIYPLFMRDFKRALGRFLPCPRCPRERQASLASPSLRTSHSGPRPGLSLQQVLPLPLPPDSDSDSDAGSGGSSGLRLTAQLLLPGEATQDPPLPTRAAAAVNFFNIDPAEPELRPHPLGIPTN

Point of comparison: `CC1(C)CN(S(=O)(=O)c2ccccc2F)c2cc(F)cc(N3CCNCC3)c2O1` [6-Fluoro-4-(2-fluoro-benzenesulfonyl)-2,2-dimethyl-8-piperazin-1-yl-3,4-dihydro-2H-benzo[1,4]oxazine], Ki 0.209 nM. Against it:
- O=S(=O)(c1ccccc1F)N1CCOc2c(N3CCNCC3)cccc21 [4-(2-Fluoro-benzenesulfonyl)-8-piperazin-1-yl-3,4-dihydro-2H-benzo[1,4]oxazine] — 6-fold higher, 1.26 nM
- Cc1cc(N2CCNCC2)c2c(c1)N(S(=O)(=O)c1cccc(F)c1)CCO2 [4-(3-Fluoro-benzenesulfonyl)-6-methyl-8-piperazin-1-yl-3,4-dihydro-2H-benzo[1,4]oxazine] — 9.6-fold higher, 2 nM
- O=S(=O)(c1cccc(F)c1)N1CC2(CCC2)Oc2c(N3CCNCC3)cccc21 [4-(3-Fluoro-benzenesulfonyl)-2,2-spiro-cyclobutan-8-piperazin-1-yl-3,4-dihydro-2H-benzo[1,4]oxazine] — 5.6-fold higher, 1.17 nM
- O=S(=O)(c1ccccc1Cl)N1CCOc2c(N3CCNCC3)cccc21 [4-(2-Chloro-benzenesulfonyl)-8-piperazin-1-yl-3,4-dihydro-2H-benzo[1,4]oxazine] — 10-fold higher, 2.14 nM
- O=S(=O)(c1ccccc1F)N1CCOc2c(N3CCNCC3)cc(F)cc21 [6-Fluoro-4-(2-fluoro-benzenesulfonyl)-8-piperazin-1-yl-3,4-dihydro-2H-benzo[1,4]oxazine] — 3.5-fold higher, 0.724 nM
- Cc1cc(N2CCNCC2)c2c(c1)N(S(=O)(=O)c1cccc(F)c1)CC(C)(C)O2 [4-(3-Fluoro-benzenesulfonyl)-2,2,6-trimethyl-8-piperazinyl-yl-3,4-dihydro-2H-benzo[1,4]oxazine] — 1.9-fold higher, 0.407 nM
- O=S(=O)(c1cccc(F)c1)N1CCOc2c(N3CCNCC3)cccc21 [4-(3-Fluoro-benzenesulfonyl)-8-piperazin-1-yl-3,4-dihydro-2H-benzo[1,4]oxazine] — 54-fold higher, 11.2 nM
- CC1(C)CN(S(=O)(=O)c2ccccc2F)c2cccc(N3CCNCC3)c2O1 [4-(2-Fluoro-benzenesulfonyl)-2,2-dimethyl-8-piperazin-1-yl-3,4-dihydro-2H-benzo[1,4]oxazine] — the same, 0.209 nM

Compound `O=S(=O)(c1cccc(Cl)c1)N1CC2(CCC2)Oc2c(N3CCNCC3)cccc21` [4-(3-Chloro-benzenesulfonyl)-2,2-spiro-cyclobutan-8-piperazin-1-yl-3,4-dihydro-2H-benzo[1,4]oxazine] has a pKi of 9.30.
